# Measured values from patent publication US5728670A, “Enzymatically stable alkyl (alkyl glycosid) uronates as nonionic surfactants and a process for their manufacture” (Lever Brothers Company, Division of Conopco, Inc., priority 1993, dated 1998).
# Legend:
# [1] = biological target: T1, Lipolase (Thermomyces lanuginosus, UniProt O59952); assay: Enzyme stability: Lipolase-catalyzed hydrolysis monitored by pH-stat titration; type: biochemical; conditions: for MEAN SLOPE: Tris-HCl pH 8.0, 30° C., acid production titrated with 0.1N NaOH; for STABILITY / REL VELOCITY: Lipolase hydrolysis; for STABILITY: fold relative to α-methyl D-glucose monolaurate; for REL VELOCITY: relative to α-methyl D-glucose monolaurate = 100
# T1 sequence (O59952 23-291): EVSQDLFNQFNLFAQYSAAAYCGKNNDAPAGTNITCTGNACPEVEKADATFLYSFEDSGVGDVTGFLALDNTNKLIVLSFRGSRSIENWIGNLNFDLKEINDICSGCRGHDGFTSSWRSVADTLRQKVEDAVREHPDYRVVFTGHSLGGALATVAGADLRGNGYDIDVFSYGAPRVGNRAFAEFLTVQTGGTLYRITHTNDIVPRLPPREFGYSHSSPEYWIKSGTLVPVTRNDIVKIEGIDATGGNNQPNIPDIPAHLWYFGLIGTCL
# Protocol: Enzyme catalyzed hydrolysis of uronates was monitored using a TitraLab (Radiometer, Copenhagen) pH-stat autotitrator. Emulsified substrate was prepared by mixing water (5 mL), 1-butanol (1 mL), acacia gum (1 g), and substrate (0.357 mmoles) using a homogenizer (Omni-mixer, OCI Instruments)for 15 minutes. Emulsified substrate (5 mL) was mixed with Tris-HCl buffer (20 mL, 100 mM, pH 8.0) and equilibrated at 30° C. in a thermostatic reaction cup. Lipolase (20.5 LU) was added to initiate the reaction and the production of acid was monitored by titration with 0.1N NaOH.
# [2] = Wash cycle stability (t1/2) by automatic titrator; type: physicochemical; conditions: 40° C., pH=10, 8.13×10^-3 M concentration; 8130 µM
# Protocol: The wash cycle stability or half-life (t1/2) of decyl(methyl α-D-galactopyranosid)uronate was determined using an automatic titrator at 40° C., pH=10, 8.13×10^-3 M concentration.
MEAN SLOPE ([1]; Lipolase 20.5 LU),STABILITY [1] [X],REL VELOCITY [1],Wash cycle stability or half-life (t1/2) [2] [h],"Enzyme stability to lipolase hydrolysis (in words) ([1]; Lipolase 20.5 LU, pH 8.0, 30° C.)",Compound
1.6880,2.4,42,–,–,"CCCCCCCCCCCC(=O)OC[C@H]1OC(O)[C@H](O)[C@@H](O)[C@@H]1O (stereo partly drawn) [D-Glucose Mono-laurate, D-glucose monolaurate]"
–,–,–,7.9,–,CCCCCCCCCCOC(=O)[C@H]1O[C@H](OC)[C@H](O)[C@@H](O)[C@H]1O [Decyl(Methyl α-D-Galactopyranosid)uronate]
0.7101,5.6,18,–,–,CCCCCCCCCCOC(=O)[C@H]1O[C@@H](OC)[C@H](O)[C@@H](O)[C@H]1O [Decyl(Methyl β-D-Galactopyranosid)uronate]
–,–,–,–,very stable/slow hydrolysis,CCCCCCOC(=O)[C@H]1O[C@H](OC)[C@H](O)[C@@H](O)[C@H]1O [Hexyl(Methyl α-D-Galactopyranosid)uronate]
3.9921,1,100,–,–,"CCCCCCCCCCCC(=O)OC[C@H]1O[C@H](OC)[C@H](O)[C@@H](O)[C@@H]1O [α-Methyl D-Glucose Monolaurate, α-methyl D-glucose monolaurate]"
